Laboratory results from ChEMBL document CHEMBL1201861, “Genomics of Drug Sensitity in Cancer screening data, Wellcome Trust Sanger Institute”.

Legend:
Experiment in all cases: cells
SNU-5 = assay type: functional, cell-based; settings: Homo sapiens;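 note: cell viability readout used to measure growth inhibition in human NCI-SNU-5 cells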
Description: SANGER: Inhibition of human NCI-SNU-5 cell growth in a cell viability assay.

NCI-H661 = assay type: functional, cell-based, Homo sapiens; settings: Homo sapiens, NCI-H661;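 note: cell viability assay read-out, IC50 being the concentration that inhibits growth of the cells by half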
Description: SANGER: Inhibition of human NCI-H661 cell growth in a cell viability assay.

NCI-H1395 = assay type: functional, cell-based, Homo sapiens; settings: Homo sapiens, NCI-H1395;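 note: cell viability assay read-out quantifying reduced proliferation of human NCI-H1395 cells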
Description: SANGER: Inhibition of human NCI-H1395 cell growth in a cell viability assay.

T-24 = assay type: functional, cell-based, Homo sapiens; settings: Homo sapiens, T-24;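 note: growth inhibition of T-24 cells, read out with a cell viability assay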
Description: SANGER: Inhibition of human T-24 cell growth in a cell viability assay.

HD-MY-Z = assay type: functional, cell-based, Homo sapiens; settings: Homo sapiens, HD-MY-Z;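 note: growth inhibition of HD-MY-Z cells, read out with a cell viability assay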
Description: SANGER: Inhibition of human HD-MY-Z cell growth in a cell viability assay.

SK-MEL3 = assay type: functional, cell-based, Homo sapiens, SK-MEL-3; settings: Homo sapiens, SK-MEL3;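 note: growth inhibition of human SK-MEL-3 cells, read out with a cell viability assay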
Description: SANGER: Inhibition of human SK-MEL-3 cell growth in a cell viability assay.

NCI-H1651 = assay type: functional, cell-based, Homo sapiens; settings: Homo sapiens, NCI-H1651;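 note: Read-out is a cell viability assay, with IC50 expressing inhibition of NCI-H1651 cell growth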
Description: SANGER: Inhibition of human NCI-H1651 cell growth in a cell viability assay.

T47D = assay type: functional, cell-based, Homo sapiens; settings: Homo sapiens, T47D;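 note: growth inhibition of human T47D cells, measured with a cell viability assay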
Description: SANGER: Inhibition of human T47D cell growth in a cell viability assay.

KYSE-510 = assay type: functional, cell-based, Homo sapiens; settings: Homo sapiens, KYSE-510;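 note: cell viability readout used to measure how strongly growth of the cell line is suppressed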
Description: SANGER: Inhibition of human KYSE-510 cell growth in a cell viability assay.

YKG-1 = assay type: functional, cell-based, Homo sapiens; settings: Homo sapiens, YKG-1;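 note: cell growth inhibition, read out with a viability assay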
Description: SANGER: Inhibition of human YKG-1 cell growth in a cell viability assay.

Detroit 562 = assay type: functional, cell-based, Homo sapiens; settings: Homo sapiens, Detroit 562;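 note: growth inhibition of human Detroit 562 cells, read out by a cell viability assay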
Description: SANGER: Inhibition of human Detroit562 cell growth in a cell viability assay.

LB2518-MEL = assay type: functional, cell-based, Homo sapiens; settings: Homo sapiens, LB2518-MEL;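 note: growth inhibition of human LB2518-MEL cells, measured with a cell viability assay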
Description: SANGER: Inhibition of human LB2518-MEL cell growth in a cell viability assay.

NCI-H2126 = assay type: functional, cell-based, Homo sapiens; settings: Homo sapiens, NCI-H2126;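 note: growth inhibition of the cancer cell line, determined with a cell viability readout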
Description: SANGER: Inhibition of human NCI-H2126 cell growth in a cell viability assay.

CP50-MEL-B = assay type: functional, cell-based, Homo sapiens; settings: Homo sapiens, CP50-MEL-B;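 note: growth inhibition of the human cell line, measured with a cell viability read-out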
Description: SANGER: Inhibition of human CP50-MEL-B cell growth in a cell viability assay.

CW-2 = assay type: functional, cell-based, Homo sapiens; settings: Homo sapiens, CW-2;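 note: growth inhibition of CW-2 cells, read out by a cell viability assay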
Description: SANGER: Inhibition of human CW-2 cell growth in a cell viability assay.

HCC2218 = assay type: functional, cell-based; settings: Homo sapiens;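 note: cell viability assay read-out, with IC50 given as the concentration that inhibits growth of the cell line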
Description: SANGER: Inhibition of human HCC2218 cell growth in a cell viability assay.

COLO-792 = assay type: functional, cell-based, Homo sapiens; settings: Homo sapiens, COLO-792
Description: SANGER: Inhibition of human COLO-792 cell growth in a cell viability assay.

HO-1-N-1 = assay type: functional, cell-based, Homo sapiens; settings: Homo sapiens, HO-1-N-1;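 note: growth inhibition of human HO-1-N-1 cells, read out with a cell viability assay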
Description: SANGER: Inhibition of human HO-1-N-1 cell growth in a cell viability assay.

BPH-1 = assay type: functional, cell-based, Homo sapiens; settings: Homo sapiens, BPH-1;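 note: cell viability assay measuring growth inhibition of human BPH-1 cells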
Description: SANGER: Inhibition of human BPH-1 cell growth in a cell viability assay.

Calu-6 = assay type: functional, cell-based, Homo sapiens; settings: Homo sapiens, Calu-6;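 note: growth of human Calu-6 cells, read out by a cell viability assay, IC50 marking inhibition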
Description: SANGER: Inhibition of human Calu-6 cell growth in a cell viability assay.

BFTC-909 = assay type: functional, cell-based, Homo sapiens; settings: Homo sapiens, BFTC-909
Description: SANGER: Inhibition of human BFTC-909 cell growth in a cell viability assay.

HT-1080 = assay type: functional, cell-based, Homo sapiens; settings: Homo sapiens, HT-1080
Description: SANGER: Inhibition of human HT-1080 cell growth in a cell viability assay.

Capan-2 = assay type: functional, cell-based, Homo sapiens; settings: Homo sapiens, Capan-2;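 note: Capan-2 cell growth inhibition, read out with a viability assay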
Description: SANGER: Inhibition of human Capan-2 cell growth in a cell viability assay.

HCC 2998 = assay type: functional, cell-based, Homo sapiens; settings: Homo sapiens, HCC 2998;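 note: growth inhibition of human HCC2998 cells, measured with a cell viability read-out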
Description: SANGER: Inhibition of human HCC2998 cell growth in a cell viability assay.

NCI-H1623 = assay type: functional, cell-based, Homo sapiens; settings: Homo sapiens, NCI-H1623;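 note: cell viability assay used as the read-out for growth inhibition of NCI-H1623 cells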
Description: SANGER: Inhibition of human NCI-H1623 cell growth in a cell viability assay.

KALS-1 = assay type: functional, cell-based, Homo sapiens; settings: Homo sapiens, KALS-1;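 note: growth inhibition of KALS-1 cells, determined with a cell viability assay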
Description: SANGER: Inhibition of human KALS-1 cell growth in a cell viability assay.

KINGS-1 = assay type: functional, cell-based, Homo sapiens; settings: Homo sapiens, KINGS-1;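 note: cell viability assay measuring suppression of KINGS-1 cell growth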
Description: SANGER: Inhibition of human KINGS-1 cell growth in a cell viability assay.

LXF-289 cell line = assay type: functional, cell-based, Homo sapiens; settings: Homo sapiens, LXF-289
Description: SANGER: Inhibition of human LXF-289 cell growth in a cell viability assay.

Mo = assay type: functional, cell-based; settings: Homo sapiens
Description: SANGER: Inhibition of human Mo-T cell growth in a cell viability assay.

DOHH-2 = assay type: functional, cell-based; settings: Homo sapiens;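 note: growth inhibition of human DOHH-2 cells, read out with a cell viability assay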
Description: SANGER: Inhibition of human DOHH-2 cell growth in a cell viability assay.

RCM-1 = assay type: functional, cell-based, Homo sapiens; settings: Homo sapiens, RCM-1;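 note: growth inhibition of the RCM-1 line, determined with a cell viability readout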
Description: SANGER: Inhibition of human RCM-1 cell growth in a cell viability assay.

BB49-HNC = assay type: functional, cell-based, Homo sapiens; settings: Homo sapiens, BB49-HNC;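 note: cell viability assay read-out, reported as inhibition of BB49-HNC cell growth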
Description: SANGER: Inhibition of human BB49-HNC cell growth in a cell viability assay.

SK-NEP-1 = assay type: functional, cell-based; settings: Homo sapiens;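 note: growth inhibition of human SK-NEP-1 cells, read out by a cell viability assay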
Description: SANGER: Inhibition of human SK-NEP-1 cell growth in a cell viability assay.

C8166 = assay type: functional, cell-based; settings: Homo sapiens;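 note: growth inhibition of human C8166 cells measured by a cell viability assay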
Description: SANGER: Inhibition of human C8166 cell growth in a cell viability assay.

LS-411N = assay type: functional, cell-based, Homo sapiens; settings: Homo sapiens, LS-411N
BEN = assay type: functional, cell-based, Homo sapiens; settings: Homo sapiens, BEN;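 note: growth inhibition of the BEN cell line, read out with a cell viability assay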
Description: SANGER: Inhibition of human BEN cell growth in a cell viability assay.

Ca-Ski = assay type: functional, cell-based; settings: Homo sapiens;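 note: cell viability assay measuring inhibition of Ca-Ski cell growth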
Description: SANGER: Inhibition of human Ca-Ski cell growth in a cell viability assay.

MZ7-mel = assay type: functional, cell-based, Homo sapiens; settings: Homo sapiens, MZ7-mel;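 note: growth inhibition of human MZ7-mel cells, measured by a cell viability assay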
Description: SANGER: Inhibition of human MZ7-mel cell growth in a cell viability assay.

KS-1 = assay type: functional, cell-based, Homo sapiens; settings: Homo sapiens, KS-1;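 note: growth inhibition of KS-1 cells, read out with a cell viability assay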
Description: SANGER: Inhibition of human KS-1 cell growth in a cell viability assay.

A-427 = assay type: functional, cell-based, Homo sapiens; settings: Homo sapiens, A-427;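 note: growth inhibition of human A-427 cells, read out by a cell viability assay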
Description: SANGER: Inhibition of human A427 cell growth in a cell viability assay.

EW-24 = assay type: functional, cell-based; settings: Homo sapiens;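 note: human EW-24 cancer cell line, growth inhibition read out via a cell viability assay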
Description: SANGER: Inhibition of human EW-24 cell growth in a cell viability assay.

AU565 = assay type: functional, cell-based, Homo sapiens; settings: Homo sapiens, AU565;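 note: cell viability assay measuring growth inhibition of human AU565 cells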
Description: SANGER: Inhibition of human AU565 cell growth in a cell viability assay.

HCC1569 = assay type: functional, cell-based, Homo sapiens; settings: Homo sapiens, HCC1569;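 note: growth inhibition of human HCC1569 cells, read out with a cell viability assay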
Description: SANGER: Inhibition of human HCC1569 cell growth in a cell viability assay.

OE19 = assay type: functional, cell-based, Homo sapiens; settings: Homo sapiens, OE19;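 note: growth inhibition of OE19 cells, measured through a cell viability read-out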
Description: SANGER: Inhibition of human OE19 cell growth in a cell viability assay.

JAR = assay type: functional, cell-based, Homo sapiens; settings: Homo sapiens, JAR;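 note: growth inhibition of human JAR cells determined with a cell viability assay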
Description: SANGER: Inhibition of human JAR cell growth in a cell viability assay.

PC-3 = assay type: functional, cell-based, Homo sapiens; settings: Homo sapiens, PC-3;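 note: cell viability assay measuring growth inhibition of PC-3 cells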
Description: SANGER: Inhibition of human PC-3 cell growth in a cell viability assay.

SW1088 = assay type: functional, cell-based, Homo sapiens; settings: Homo sapiens, SW1088;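 note: growth inhibition of human SW1088 cells, read out by a cell viability assay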
Description: SANGER: Inhibition of human SW1088 cell growth in a cell viability assay.

IST-SL1 = assay type: functional, cell-based, Homo sapiens; settings: Homo sapiens, IST-SL1;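 note: growth inhibition of human IST-SL1 cells, read out with a cell viability assay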
Description: SANGER: Inhibition of human IST-SL1 cell growth in a cell viability assay.

MLMA = assay type: functional, cell-based, Homo sapiens; settings: Homo sapiens, MLMA;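 note: growth inhibition of MLMA cells (human), determined through a cell viability readout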
Description: SANGER: Inhibition of human MLMA cell growth in a cell viability assay.

HOP-62 = assay type: functional, cell-based, Homo sapiens; settings: Homo sapiens, HOP-62;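 note: cell growth inhibition determined with a viability assay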
Description: SANGER: Inhibition of human HOP-62 cell growth in a cell viability assay.

Measured: IC50

O=C(c1cc(Cc2n[nH]c(=O)c3ccccc23)ccc1F)N1CCN(C(=O)C2CC2)CC1 [OLAPARIB]
3.73 µM: HCC2218
not listed: HOP-62
> 5 µM: all other assays above

C=C1C(=O)O[C@@H]2C3O[C@]3(C)CC/C=C(\C)CC[C@@H]12 (some centres not stated)
> 5 µM: SNU-5 | NCI-H1395 | HD-MY-Z | LB2518-MEL | NCI-H2126 | CW-2 | HCC2218 | HOP-62 | Calu-6 | HCC 2998 | KALS-1 | KINGS-1 | LXF-289 cell line | Mo | DOHH-2 | BB49-HNC | SK-NEP-1 | C8166 | LS-411N | MZ7-mel | KS-1 | EW-24 | JAR | IST-SL1 | MLMA

CN(Cc1cnc2nc(N)nc(N)c2n1)c1ccc(C(=O)N[C@@H](CCC(=O)O)C(=O)O)cc1 [METHOTREXATE]
0.0216 µM: DOHH-2
0.188 µM: JAR
0.0917 µM: KYSE-510
0.0613 µM: AU565
0.00482 µM: SK-NEP-1
0.118 µM: LS-411N
0.0965 µM: MLMA
not listed: HCC2218 | HOP-62
> 0.2 µM: all other assays above
